Structures are written as SMILES. Counter-ions that a name gives are not always drawn.

What is called Ki is the equilibrium dissociation constant of an inhibitor or competing ligand from its target.

T1 sequence (Q60492 whole entry): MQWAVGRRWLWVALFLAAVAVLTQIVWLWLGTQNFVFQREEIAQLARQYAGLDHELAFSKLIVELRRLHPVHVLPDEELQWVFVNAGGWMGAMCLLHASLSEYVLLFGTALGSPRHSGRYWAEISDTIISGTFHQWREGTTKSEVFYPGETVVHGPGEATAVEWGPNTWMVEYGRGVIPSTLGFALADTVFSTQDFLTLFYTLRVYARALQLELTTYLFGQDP

This assay addresses T1, σ1-receptor (Cavia porcellus, UniProt Q60492).
T1 construct: Guinea pig brains were homogenized in 10 vols; (w/v) of Tris-HCl 50 mM 0.32 M sucrose; from tissue; host or cells: guinea pig brain membranes
As to the kind of experiment: σ1-receptor binding assay, [3H]-(+)-pentazocine, guinea pig brain membranes. Particulars: radioligand [3H]-(+)-pentazocine at 5.0 nM; guinea pig brain membrane; 150 min at 37° C.; nonspecific binding with 1 μM haloperidol. The procedure:
Brain membrane preparation and binding assays for the σ1-receptor were performed as described (DeHaven-Hudkins, D. L., L. C. Fleissner, and F. Y. Ford-Rice, 1992, Characterization of the binding of [^3H](+)pentazocine to σ recognition sites in guinea pig brain, Eur. J. Pharmacol. 227, 371-378) with some modifications. Guinea pig brains were homogenized in 10 vols. (w/v) of Tris-HCl 50 mM 0.32 M sucrose, pH 7.4, with a Kinematica Polytron PT 3000 at 15000 r.p.m. for 30 s. The homogenate was centrifuged at 1000 g for 10 min at 4° C. and the supernatants collected and centrifuged again at 48000 g for 15 min at 4° C. The pellet was resuspended in 10 volumes of Tris-HCl buffer (50 mM, pH 7.4), incubated at 37° C. for 30 min, and centrifuged at 48000 g for 20 min at 4° C. Following this, the pellet was re-suspended in fresh Tris-HCl buffer (50 mM, pH 7.4) and stored on ice until use.
The radioligand used was [^3H]-(+)-pentazocine at 5.0 nM and the final volume was 200 μl. The incubation was initiated with the addition of 100 μl of membrane at a final tissue concentration of approximately 5 mg tissue net weight/mL and the incubation time was 150 m. at 37° C. After incubation, the membranes were collected onto pretreated glass fiber filterplate (MultiScreen-FC, Millipore), with polyethylenimine 0.1%. The filters were washed two times with 200 μl of washing buffer (50 mM Tris Cl, pH=7.4) and then 25 μl of Ecoscint H liquid scintillation cocktail were added. Microplates were allowed to set for several hours and then quantified by liquid scintillation spectrophotometry (1450 Microbeta, Wallac). Nonspecific binding was determined with 1 μM haloperidol.
In turn, `CC(C)(C)C1CCN(CCCCOCc2cc3ccccn3n2)CC1` [Example 1, 2-((4-(4-tert-butylpiperidin-1-yl)butoxy)methyl)pyrazolo[1,5-a]pyridine maleate] came in with a Ki of 16.3 nM.
To `c1ccn2nc(COCCN3CCCCCC3)cc2c1` [Example 2, 2-((2-(azepan-1-yl)ethoxy)methyl)pyrazolo[1,5-a]pyridine maleate] belongs 37.6 nM; to `CCCN(CCCCOCc1cc2ccccn2n1)CC1CC1` [Example 3, N-(cyclopropylmethyl)-N-propyl-4-(pyrazolo[1,5-a]pyridin-2-ylmethylpyrazolo[1,5-a]pyridin-2-ylmethoxy)butan-1-amine maleate], 90.1 nM.
To `c1ccc2c(c1)CCN(CCCCOCc1cc3ccccn3n1)C2` [Example 4, maleate] belongs 48 nM.
With `c1ccn2nc(COCCCCNC34CC5CC(CC(C5)C3)C4)cc2c1` [Example 5, N-adamantyl-4-(pyrazolo[1,5-a]pyridin-2-ylmethylpyrazolo[1,5-a]pyridin-2-ylmethoxy)butan-1-amine maleate] the figure was 42.3 nM; with `c1ccc2c(c1)COC21CCN(CCCCOCc2cc3ccccn3n2)CC1` [Example 6, 1′-(4-(pyrazolo[l,5-a]pyridin-2-ylmethylpyrazolo[1,5-a]pyridin-2-ylmethoxy)butyl)-3H-spiro[isobenzofuran-1,4′-piperidine] maleate], 23.3 nM; with `c1ccn2nc(COCCCCN3CCCCCC3)cc2c1` [Example 8, 2-((4-(azepan-1-yl)butoxy)methyl)pyrazolo[1,5-a]pyridine maleate], 22.2 nM.
`c1ccn2nc(COCCCCN3CCN(C4CCCCC4)CC3)cc2c1` [Example 10, 2-((4-(4-cyclohexylpiperazin-1-yl)butoxy)methyl)pyrazolo[1,5-a]pyridine maleate] gave an inhibition constant Ki of 75.4 nM.
`CN(CCCCOc1cc2ccccn2n1)C1CCN(Cc2ccccc2)CC1` [Example 12, 1-benzyl-N-methyl-N-(4-(pyrazolo[1,5-a]pyridin-2-yloxy)butyl)piperidin-4-amine difumarate] had an inhibitory constant (Ki) of 19.5 nM.
To `c1ccn2nc(OCCCCN3CCOCC3)cc2c1` [Example 17, 4-(4-(pyrazolo[1,5-a]pyridin-2-yloxy)butyl)morpholine oxalate] belongs 118 nM; to `c1ccn2nc(OCCCCN3CCCCC3)cc2c1` [Example 18, 2-(4-(piperidin-1-yl)butoxy)pyrazolo[1,5-a]pyridine oxalate], 14.7 nM.
The compound `CCN(CC)CCCCOc1cc2ccccn2n1` [Example 19, N,N-diethyl-4-(pyrazolo[1,5-a]pyridin-2-yloxy)butan-1-amine oxalate] yielded an inhibition constant (Ki) of 74.9 nM.
To `c1ccn2nc(OCCCCN3CCCC3)cc2c1` [Example 20, 2-(4-(pyrrolidin-1-yl)butoxy)pyrazolo[1,5-a]pyridine oxalate] belongs 50.7 nM.
In the case of `c1ccc(C2CCN(CCCCOc3cc4ccccn4n3)CC2)cc1` [Example 21, 2-(4-(4-phenylpiperidin-1-yl)butoxy)pyrazolo[1,5-a]pyridine oxalate], the inhibition constant (Ki) stood at 3.8 nM.
`CN(CCCCOc1cc2ccccn2n1)Cc1ccccc1` [Example 22, N-benzyl-N-methyl-4-(pyrazolo[1,5-a]pyridin-2-yloxy)butan-1-amine oxalate] displayed a Ki of 3.6 nM.
For `c1ccc(OC2CCN(CCCCOc3cc4ccccn4n3)CC2)cc1` [Example 23, 2,(4-(4-phenoxypiperidin-1-yl)butoxy)pyrazolo[1,5-a]pyridine oxalate], the inhibition constant (Ki) turned out to be 30.1 nM.
To `CN(CCOc1cc2ccccn2n1)Cc1ccccc1` [Example 24, N-benzyl-N-methyl-2-(pyrazolo[1,5-a]pyridin-2-yloxy)ethanamine oxalate] belongs 4.5 nM; to `c1ccc(N2CCN(CCCCOc3cc4ccccn4n3)CC2)cc1` [Example 25, 2-(4-(4-phenylpiperazin-1-yl)butoxy)pyrazolo[1,5-a]pyridine oxalate], 19.6 nM.
With `c1ccc2cc(C3CCN(CCCCOc4cc5ccccn5n4)CC3)ccc2c1` [Example 26, 2-(4-(4-(naphthalen-2-yl)piperidin-1-yl)butoxy)pyrazolo[1,5-a]pyridine] the figure was 11 nM.
`c1ccc2c(c1)COC21CCN(CCCCOc2cc3ccccn3n2)CC1` [Example 27, 1′-(4-(pyrazolo[1,5-a]pyridin-2-yloxy)butyl)-3H-spiro[isobenzofuran-1,4′-piperidine] oxalate] displayed a Ki of 9.1 nM.
To `c1ccn2nc(OCCCCN3CCN(C4CCCCC4)CC3)cc2c1` [Example 28, 2-(4-(4-cyclohexylpiperazin-1-yl)butoxy)pyrazolo[1,5-a]pyridine] belongs 19.9 nM.
To `c1ccn2nc(OCCCCN3CCN(C4CCCCC4)CC3)cc2c1` [Example 29, 2-(4-(4-cyclohexylpiperazin-1-yl)butoxy)pyrazolo[1,5-a]pyridine dimaleate] belongs 11.3 nM; to `CC(C)(C)C1CCN(CCCCOc2cc3ccccn3n2)CC1` [Example 30, 2-(4-(4-tert-butylpiperidin-1-yl)butoxy)pyrazolo[1,5-a]pyridine hydrochloride], 6.2 nM.
To `CN(CCCCOc1cc2ccccn2n1)CCc1ccccc1` [Example 31, N-methyl-N-phenethyl-4-(pyrazolo[1,5-a]pyridin-2-yloxy)butan-1-amine hydrochloride] belongs 21 nM; to `CN(CCCCOc1cc2ccccn2n1)Cc1ccncc1` [Example 32, N-methyl-4-(pyrazolo[1,5-a]pyridin-2-yloxy)-N-(pyridin-4-ylmethyl)butan-1-amine dihydrochloride], 14.5 nM.
In turn, `c1ccn2nc(OCCCCN3CCC4CCCCC4C3)cc2c1` (stereo not drawn) [Example 34, 2-(4-(pyrazolo[1,5-a]pyridin-2-yloxy)butyl)decahydroisoquinoline fumarate] gave an inhibition constant (Ki) of 5.7 nM.
The compound `CCCN(CCCCOc1cc2ccccn2n1)CC1CC1` [Example 35, N-(cyclopropylmethyl)-N-propyl-4-(pyrazolo[1,5-a]pyridin-2-yloxy)butan-1-amine maleate] returned a Ki of 10.6 nM.
To `c1ccc2c(c1)CCN(CCCCOc1cc3ccccn3n1)C2` [Example 36, 2-(4-(pyrazolo[1,5-a]pyridin-2-yloxy)butyl)-1,2,3,4-tetrahydroisoquinoline maleate] belongs 20 nM.
With `c1ccn2nc(OCCCCNC34CC5CC(CC(C5)C3)C4)cc2c1` [Example 37, N-adamantyl-4-(pyrazolo[1,5-a]pyridin-2-yloxy)-butan-1-amine maleate], the Ki was 14.2 nM.
With `CC(C)(C)C1CCN(CCOc2cc3ccccn3n2)CC1` [Example 39, 2-(2-(4-tert-butylpiperidin-1-yl)ethoxy)pyrazolo[1,5-a]pyridine maleate] the figure was 6.35 nM.
With `CN(CCOc1cc2ccccn2n1)CCc1ccccc1` [Example 40, N-methyl-N-phenethyl-2-(pyrazolo[1,5-a]pyridin-2-yloxy)ethanamine maleate] the figure was 41.1 nM; with `CN(CCOc1cc2ccccn2n1)C1CCN(Cc2ccccc2)CC1` [Example 41, 1-benzyl-N-methyl-N-(2-(pyrazolo[1,5-a]pyridin-2-yloxy)ethyl)piperidin-4-amine dimaleate], 14.7 nM.
To `c1ccn2nc(OCCN3CCC4CCCCC4C3)cc2c1` (stereo not drawn) [Example 42, 2-(2-(pyrazolo[1,5-a]pyridin-2-yloxy)ethyl)decahydroisoquinoline maleate] belongs 3.6 nM; to `CCCN(CCOc1cc2ccccn2n1)CC1CC1` [Example 43, N-(cyclopropylmethyl)-N-(2-(pyrazolo[1,5-a]pyridin-2-yloxy)ethyl)propan-1-amine maleate], 28.1 nM.
In turn, `c1ccn2nc(OCCN3CCN(C4CCCCC4)CC3)cc2c1` [Example 47, 2-(2-(4-cyclohexylpiperazin-1-yl)ethoxy)pyrazolo[1,5-a]pyridine dimaleate] had an inhibitory constant (Ki) of 14.1 nM.
Compound `c1ccc2c(c1)COC21CCN(CCOc2cc3ccccn3n2)CC1` [Example 48, 1′-(2-(pyrazolo[1,5-a]pyridin-2-yloxy)ethyl)-3H-spiro[isobenzofuran-1,4′-piperidine] dimaleate] gave a Ki of 15.8 nM.
Turning to `c1ccn2nc(OCCCCN3CCCCCC3)cc2c1` [Example 49, 2-(4-(azepan-1-yl)butoxy)pyrazolo[1,5-a]pyridine maleate], the inhibition constant Ki was 7 nM.
With `c1ccn2nc(OCCCCNC3CCCCC3)cc2c1` [Example 50, N-(4-(pyrazolo[1,5-a]pyridin-2-yloxy)butyl)cyclohexanamine maleate] the figure was 9.7 nM; with `c1ccn2nc(OCCCCN3CC[C@H]4CCCC[C@@H]4C3)cc2c1` [Example 51, (4aR,8aS)-2-(4-(pyrazolo[1,5-a]pyridin-2-yloxy)butyl)decahydroisoquinoline maleate], 8.3 nM.

For the origin of these results see patent publication US9487513B2, “Substituted pyrazolo[1,5-A]pyridines, their preparation and use as medicaments” (LABORATORIOS DEL DR. ESTEVE S.A., priority 2012, dated 2016).
